# Columns and labels:
# Format in all cases: in vivo
# [1] = test system: soybean (Glycine max var. Winchester); experiment: Preemergence herbicidal activity, soybean; conditions: Rate of Application 0.3 Kg/Ha, examined after 12-17 days
# [2] = test system: wheat (Triticum aestivum var. Lew); experiment: Preemergence herbicidal activity, wheat; conditions: Rate of Application 0.3 Kg/Ha, examined after 12-17 days
# [3] = test system: field corn (Zea mays var. Pioneer 3732); experiment: Preemergence herbicidal activity, corn; conditions: Rate of Application 0.3 Kg/Ha, examined after 12-17 days
# [4] = test system: velvetleaf (Abutilon theophrasti); experiment: Preemergence herbicidal activity, velvetleaf; conditions: Rate of Application 0.3 Kg/Ha, examined after 12-17 days
# [5] = test system: morningglory (Ipomea lacunosa or Ipomea hederacea); experiment: Preemergence herbicidal activity, morningglory; conditions: Rate of Application 0.3 Kg/Ha, examined after 12-17 days
# [6] = test system: common chickweed (Stellaria media); experiment: Preemergence herbicidal activity, chickweed; conditions: Rate of Application 0.3 Kg/Ha, examined after 12-17 days
# [7] = test system: common cocklebur (Xanthium strumarium L.); experiment: Preemergence herbicidal activity, cocklebur; conditions: Rate of Application 0.3 Kg/Ha, examined after 12-17 days
# [8] = test system: blackgrass (Aloepecurus myosuroides); experiment: Preemergence herbicidal activity, blackgrass; conditions: Rate of Application 0.3 Kg/Ha, examined after 12-17 days
# [9] = test system: green foxtail (Setaria viridis); experiment: Preemergence herbicidal activity, green foxtail; conditions: Rate of Application 0.3 Kg/Ha, examined after 12-17 days
# [10] = test system: Johnsongrass (Sorghum halepense); experiment: Preemergence herbicidal activity, johnsongrass; conditions: Rate of Application 0.3 Kg/Ha, examined after 12-17 days
# [11] = test system: soybean (Glycine max var. Winchester); experiment: Postemergence herbicidal activity, soybean; conditions: rate of application 0.3 Kg/Ha, rated after 12-17 days
# [12] = test system: wheat (Triticum aestivum var. Lew); experiment: Postemergence herbicidal activity, wheat; conditions: rate of application 0.3 Kg/Ha, rated after 12-17 days
# [13] = test system: field corn (Zea mays var. Pioneer 3732); experiment: Postemergence herbicidal activity, corn; conditions: rate of application 0.3 Kg/Ha, rated after 12-17 days
# [14] = test system: velvetleaf (Abutilon theophrasti); experiment: Postemergence herbicidal activity, velvetleaf; conditions: rate of application 0.3 Kg/Ha, rated after 12-17 days
# [15] = test system: morningglory (Ipomea lacunosa or Ipomea hederacea); experiment: Postemergence herbicidal activity, morningglory; conditions: rate of application 0.3 Kg/Ha, rated after 12-17 days
# [16] = test system: common chickweed (Stellaria media); experiment: Postemergence herbicidal activity, chickweed; conditions: rate of application 0.3 Kg/Ha, rated after 12-17 days
# [17] = test system: common cocklebur (Xanthium strumarium L.); experiment: Postemergence herbicidal activity, cocklebur; conditions: rate of application 0.3 Kg/Ha, rated after 12-17 days
# [18] = test system: blackgrass (Aloepecurus myosuroides); experiment: Postemergence herbicidal activity, blackgrass; conditions: rate of application 0.3 Kg/Ha, rated after 12-17 days
# [19] = test system: green foxtail (Setaria viridis); experiment: Postemergence herbicidal activity, green foxtail; conditions: rate of application 0.3 Kg/Ha, rated after 12-17 days
# [20] = test system: Johnsongrass (Sorghum halepense); experiment: Postemergence herbicidal activity, johnsongrass; conditions: rate of application 0.3 Kg/Ha, rated after 12-17 days
SMILES,PREEMERGENCE HERBICIDAL ACTIVITY (% CONTROL) SOY [1] [%],PREEMERGENCE HERBICIDAL ACTIVITY (% CONTROL) WHT [2] [%],PREEMERGENCE HERBICIDAL ACTIVITY (% CONTROL) CRN [3] [%],PREEMERGENCE HERBICIDAL ACTIVITY (% CONTROL) ABUTH [4] [%],PREEMERGENCE HERBICIDAL ACTIVITY (% CONTROL) IPOSS [5] [%],PREEMERGENCE HERBICIDAL ACTIVITY (% CONTROL) STEME [6] [%],PREEMERGENCE HERBICIDAL ACTIVITY (% CONTROL) XANPE [7] [%],PREEMERGENCE HERBICIDAL ACTIVITY (% CONTROL) ALOMY [8] [%],PREEMERGENCE HERBICIDAL ACTIVITY (% CONTROL) SETVI [9] [%],PREEMERGENCE HERBICIDAL ACTIVITY (% CONTROL) SORHA [10] [%],Postemergence herbicidal activity (% control) SOY [11] [%],Postemergence herbicidal activity (% control) WHT [12] [%],Postemergence herbicidal activity (% control) CRN [13] [%],Postemergence herbicidal activity (% control) ABUTH [14] [%],Postemergence herbicidal activity (% control) IPOSS [15] [%],Postemergence herbicidal activity (% control) STEME [16] [%],Postemergence herbicidal activity (% control) XANPE [17] [%],Postemergence herbicidal activity (% control) ALOMY [18] [%],Postemergence herbicidal activity (% control) SETVI [19] [%],Postemergence herbicidal activity (% control) SORHA [20] [%]
Cn1c(C(F)(F)F)cc(=O)n(-c2ccc(Cl)c3cc(NC(=O)OC(C)(C)C)oc23)c1=O [Compound 272],20,0,20,100,70,100,20,70,90,60,50,30,45,100,60,50,50,20,70,40
Cn1c(C(F)(F)F)cc(=O)n(-c2c(F)cc(Cl)c3cc(C(N)=O)oc23)c1=O [Compound 273],100,80,90,100,100,100,100,90,100,100,95,60,95,100,100,90,100,80,100,100
CNC(=O)c1cc2c(Cl)cc(F)c(-n3c(=O)cc(C(F)(F)F)n(C)c3=O)c2o1 [Compound 274],100,100,90,100,100,90,100,95,100,100,95,60,95,100,100,90,100,90,100,100
